Assay results reported in patent publication US20240317721A1, “PYRAZOLYL DERIVATIVES AS INHIBITORS OF THE KRAS MUTANT PROTEIN” (NOVARTIS AG, priority 2021, published 2024).

Biological target: KRasG12C (M1-K169, biotinylated on the N-terminus) (Homo sapiens (Human), UniProt P01116, G12C)
Assay: Covalent competition assay: scintillation proximity assay (SPA) quantifying covalent modification of KRASG12C
Format: binding
Settings: competition with radiolabeled covalent probe (Compound B/Compound A), 2 hours incubation, 10 nM KRasG12C
Summary of the method: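 Test compounds compete with a radiolabeled covalent probe for modification of N-terminally biotinylated KRasG12C(M1-K169):GDP, final 10 nM protein, 25 nM radio-ligand, 475 nM unlabelled ligand, 2 h with agitation in 20 mM Tris-HCl pH 7.5, 150 mM NaCl, 0.1 mM MgCl2, 0.01% Tween-20.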

SMILES	IC50 [nM]
C=CC(=O)N1CC2(CC(n3nc(N4CC[C@@H](OCCN5CCOCC5)CC4(C)C)c(-c4c(Cl)c(Cl)cc5[nH]ncc45)c3C)C2)C1 (single isomer, unassigned) [Example 110b]	10
C=CC(=O)N1CC2(CC(n3nc(N4CCN(CC(C)(C)O)CC45CCC5)c(-c4c(Cl)c(C)cc5[nH]nc(N)c45)c3C)C2)C1 (single isomer, unassigned) [Example 117b, 1-(6-(4-(3-amino-5-chloro-6-methyl-1H-indazol-4-yl)-3-(8-(2-hydroxy-2-methylpropyl)-5,8-diazaspiro[3.5]nonan-5-yl)-5-methyl-1H-pyrazol-1-yl)-2-azaspiro[3.3]heptan-2-yl)prop-2-en-1-one]	1600
C=CC(=O)N1CC2(CC(n3nc(N4CCC(CN5C[C@@H]6OCCO[C@@H]6C5)CC4(C)C)c(-c4c(Cl)c(Cl)cc5[nH]ncc45)c3C)C2)C1 (single isomer, unassigned) [Example 231b]	11
C=CC(=O)N1CC2(CC(n3nc(N4CCC5(CC4)CN(C(C)=O)CCO5)c(-c4c(Cl)c(C)cc5[nH]ncc45)c3C)C2)C1 (single isomer, unassigned) [Example 26a, 1-(6-(3-(4-acetyl-1-oxa-4,9-diazaspiro [5.5]undecan-9-yl)-4-(5-chloro-6-methyl-1H-indazol-4-yl)-5-methyl-1H-pyrazol-1-yl)-2-azaspiro[3.3]heptan-2-yl)prop-2-en-1-one]	11500
C=CC(=O)N1CC2(CC(n3nc(N4CCn5ccnc5C4(C)C)c(-c4c(Cl)c(C)cc5[nH]ncc45)c3C)C2)C1 (single isomer, unassigned) [Example 23a, 1-(6-(4-(5-chloro-6-methyl-1H-indazol-4-yl)-3-(8,8-dimethyl-5,6-dihydroimidazo[1,2-a]pyrazin-7(8H)-yl)-5-methyl-1H-pyrazol-1-yl)-2-azaspiro[3.3]heptan-2-yl)prop-2-en-1-one]	> 50000
C=CC(=O)N1CC2(CC(n3nc(N4CC[C@@H](CN5C[C@H](O)C[C@H]5COC)CC4(C)C)c(-c4c(Cl)c(Cl)cc5[nH]ncc45)c3C)C2)C1 (single isomer, unassigned) [Example 286a]	1100
C=CC(=O)N1CC2(CC(n3nc(N4CC[C@@H](CN5CCC56COC6)CC4(C)C)c(-c4c(Cl)c(Cl)cc5[nH]ncc45)c3C)C2)C1 (single isomer, unassigned) [Example 307b]	8
C=CC(=O)N1CC2(CC(n3nc(N4CC=C(CN5CCOCC5)CC4(C)C)c(-c4c(Cl)c(Cl)cc5[nH]ncc45)c3C)C2)C1 (single isomer, unassigned) [Example 220b, 1-(6-(4-(5,6-dichloro-1H-indazol-4-yl)-3-(2,2-dimethyl-4-(morpholinomethyl)-3,6-dihydropyridin-1(2H)-yl)-5-methyl-1H-pyrazol-1-yl)-2-azaspiro[3.3]heptan-2-yl)prop-2-en-1-one]	36
C=CC(=O)N1CC2(CC(n3nc(N4CCC(N(CC)C5COC5)CC4(C)C)c(-c4c(Cl)c(Cl)cc5[nH]ncc45)c3C)C2)C1 (single isomer, unassigned) [Example 61a, 1-(6-(4-(5,6-dichloro-1H-indazol-4-yl)-3-(4-(ethyl(oxetan-3-yl)amino)-2,2-dimethylpiperidin-1-yl)-5-methyl-1H-pyrazol-1-yl)-2-azaspiro[3.3]heptan-2-yl)prop-2-en-1-one]	881
C=CC(=O)N1CC2(CC(n3nc(N4CC[C@@H](CN(C)CC(=O)N5CCCC5)CC4(C)C)c(-c4c(Cl)c(Cl)cc5[nH]ncc45)c3C)C2)C1 (single isomer, unassigned) [Example 252b]	6
C=CC(=O)N1CC2(CC(n3nc(N4CCn5nccc5C4C)c(-c4c(Cl)c(C)cc5[nH]ncc45)c3C)C2)C1 (single isomer, unassigned) [Example 41b, 1-(6-(4-(5-chloro-6-methyl-1H-indazol-4-yl)-5-methyl-3-(4-methyl-6,7-dihydropyrazolo[1,5-a]pyrazin-5(4H)-yl)-1H-pyrazol-1-yl)-2-azaspiro[3.3]heptan-2-yl)prop-2-en-1-one]	149
C=CC(=O)N1CC2(CC(n3nc(N4CCN(C(C)=O)CC4(C)C)c(-c4c(Cl)c(C)cc5[nH]ncc45)c3C3CC3)C2)C1 (single isomer, unassigned) [Example 24a, 1-(6-(3-(4-acetyl-2,2-dimethylpiperazin-1-yl)-4-(5-chloro-6-methyl-1H-indazol-4-yl)-5-cyclopropyl-1H-pyrazol-1-yl)-2-azaspiro[3.3]heptan-2-yl)prop-2-en-1-one]	> 50000
C=CC(=O)N1CC2(CC(n3nc(N4CCC(=O)CC45CCC5)c(-c4c(Cl)c(C)cc5[nH]ncc45)c3C)C2)C1 [Example 47, 5-(1-(2-acryloyl-2-azaspiro[3.3]heptan-6-yl)-4-(5-chloro-6-methyl-1H-indazol-4-yl)-5-methyl-1H-pyrazol-3-yl)-5-azaspiro[3.5]nonan-8-one]	> 5000
C=CC(=O)N1CC2(CC(n3nc(N4CCCc5c(cnn5C)C4)c(-c4c(Cl)c(C)cc5[nH]ncc45)c3C)C2)C1 (single isomer, unassigned) [Example 43b, 1-(6-(4-(5-chloro-6-methyl-1H-indazol-4-yl)-5-methyl-3-(1-methyl-4,6,7,8-tetrahydropyrazolo[4,3-c]azepin-5(1H)-yl)-1H-pyrazol-1-yl)-2-azaspiro[3.3]heptan-2-yl)prop-2-en-1-one]	758
C=CC(=O)N1CC2(CC(n3nc(N4CCC(CN5CCOCC5)C4(C)C)c(-c4c(Cl)c(Cl)cc5[nH]ncc45)c3C)C2)C1 (single isomer, unassigned) [Example 218b, 1-(6-(4-(5,6-dichloro-1H-indazol-4-yl)-3-(2,2-dimethyl-3-(morpholinomethyl)pyrrolidin-1-yl)-5-methyl-1H-pyrazol-1-yl)-2-azaspiro[3.3]heptan-2-yl)prop-2-en-1-one]	> 5000
C=CC(=O)N1CC2(CC(n3nc(N4CCC(O)CC4(C)C)c(-c4c(Cl)c(C)cc5[nH]ncc45)c3C)C2)C1 (single isomer, unassigned) [Example 30b, 1-(6-(4-(5-chloro-6-methyl-1H-indazol-4-yl)-3-(4-hydroxy-2,2-dimethylpiperidin-1-yl)-5-methyl-1H-pyrazol-1-yl)-2-azaspiro[3.3]heptan-2-yl)prop-2-en-1-one]	2700
C=CC(=O)N1CC2(CC(n3nc(N4CCC(C(=O)N(C)C)CC4(C)C)c(-c4c(Cl)c(C)cc5[nH]ncc45)c3C)C2)C1 (single isomer, unassigned) [Example 99a, 1-(1-(2-acryloyl-2-azaspiro[3.3]heptan-6-yl)-4-(5-chloro-6-methyl-1H-indazol-4-yl)-5-methyl-1H-pyrazol-3-yl)-N,N,2,2-tetramethylpiperidine-4-carboxamide]	2900
C=CC(=O)N1CC2(CC(n3nc(N4CCN(C5COC5)CC45CCOC5)c(-c4c(Cl)c(C)cc5[nH]ncc45)c3C)C2)C1 (single isomer, unassigned) [Example 142a, 1-(6-(4-(5-chloro-6-methyl-1H-indazol-4-yl)-5-methyl-3-(9-(oxetan-3-yl)-2-oxa-6,9-diazaspiro[4.5]decan-6-yl)-1H-pyrazol-1-yl)-2-azaspiro[3.3]heptan-2-yl)prop-2-en-1-one]	204
